This is an account of results in patent publication EP4631490A1, “ACTIVATOR AND SKIN CONDITION IMPROVING AGENT” (Nippon Shokubai Co., Ltd., priority 2022, dated 2024).

Data set [1] is described as follows: Foam property evaluation (dynamic foam analyzer). The data set is classed as physicochemical. To be noted: 0.5% aqueous solution, pH 8.0, water hardness 20°dH, 25°C; for Creaminess of foam Bubble area after 20 seconds: 20 seconds after stirring was stopped; for Creaminess of foam Bubble area after 600 seconds: 600 seconds after stirring was stopped; for Foam retention evaluation Foam change rate: smaller = better foam retention. The method, then: Thereafter, an average bubble area of foams was determined based on the images, and creaminess (foamability) of the foams was evaluated according to the following criteria. Note that the creaminess of the foams is characterized by having a small final bubble diameter (measured as average bubble area). The foams generated from the aqueous solutions containing the STL C14, the STL C16, or the STL C18 had small bubble areas, and thus it was considered that creamy foams could be formed. • ⊚ (good): The bubble area was 20000 µm^2 or less. • ∘ (passed): The bubble area was 20001 µm^2 or more and 30000 µm^2 or less. • Δ (slightly poor): The bubble area was 30001 µm^2 or more and 40000 µm^2 or less. • × (poor): The bubble area was 40001 µm^2 or more. A foam change rate was calculated using the following equation. It can be determined that the smaller the foam change rate is, the better the foam retention is, in other words, the better the foaming durability is. […]

A short description of data set [2]: Measurement of critical micelle concentration (surface tension, platinum suspension plate method). The data set is classed as physicochemical. To be noted: critical micelle concentration from surface tension measurement. The method, then: A highly functional surface tensiometer (DY-500 (available from Kyowa Interface Science Co., Ltd.) was used to perform surface tension measurement by a platinum suspension plate method, and critical micelle concentrations (CMCs) of the STL C14, the STL C16, the STL C18, sodium lauryl sulfate, sodium deoxycholate, and sodium caprylate were calculated in accordance with a common method. The results are described in Table 4.

The next data set has as its system L929 mouse fibroblasts. To be noted: values of L. Vian et al., Toxicol in vitro, 9(2), 185-190, 1995; cited from earlier work.
The test system of the next data set is Zein powder. The experiment in a line: Protein denaturation test (dissolution of Zein powder). To be noted: 0.5% aqueous solution, pH 8.0; 0.03 g Zein powder in 10 mL; room temperature, 2 hours; index of skin irritation.

Protocol for Zein powder: 0.03 g of Zein powder (FUJIFILM Wako Pure Chemical Corporation) was added to the aqueous solutions of the STL. After stirring at room temperature and 1200 rpm for 2 hours, the Zein powder-added solutions were transferred to centrifuge tubes, respectively, and centrifuged at 6200 rpm for 10 seconds to precipitate and remove undissolved zein powder. The protein concentrations in the solutions were measured using a microvolume spectrophotometer NanoDrop (NanoDrop Technologies).
The protein denaturation test was performed in the same manner using sodium lauryl sulfate, sodium deoxycholate, and sodium caprylate.

On to `CCCCCCCC(=O)[O-].[Na+]` [Sodium caprylate, sodium caprylate], for which, in data set [1], the “Creaminess of foam Bubble area after 20 seconds” value (“Creaminess … after 20 seconds” below) was “○”; the “Creaminess of foam Bubble area after 600 seconds” value (“Creaminess … after 600 seconds” for short) is “Δ (Δ (slightly poor): The bubble area was 30001 µm^2 or more and 40000 µm^2 or less.)”; the “Foam retention evaluation Foam change rate” value amounted to 1.09%. The “Surface activating ability evaluation CMC” value in data set [2] worked out at 300 mM. In addition, in the data set on L929 mouse fibroblasts, the “Cytotoxicity evaluation IC50” value is 887 ppm.
Regarding `CCCCCCCCCCCCOS(=O)(=O)[O-].[Na+]` [Sodium lauryl sulfate, sodium lauryl sulfate], in data set [1], the “Creaminess … after 20 seconds” value is “⊚ (⊚ (good): The bubble area was 20000 µm^2 or less.)”; the “Creaminess … after 600 seconds” value is “Δ (Δ (slightly poor): The bubble area was 30001 µm^2 or more and 40000 µm^2 or less.)”; the “Foam retention evaluation Foam change rate” value is given as 2.81%. Also, the “Surface activating ability evaluation CMC” value in data set [2] came to 8 mM. Also, the “Cytotoxicity evaluation IC50” value with L929 mouse fibroblasts is 86 ppm.
In the case of sodium deoxycholate, in data set [1], the “Creaminess … after 20 seconds” value was “⊚ (⊚ (good): The bubble area was 20000 µm^2 or less.)”, the “Creaminess … after 600 seconds” value is “× (× (poor): The bubble area was 40001 µm^2 or more.)” and the “Foam retention evaluation Foam change rate” value is reported as 2.62%. The “Surface activating ability evaluation CMC” value in data set [2] is 6 mM. Besides, the “Protein denaturation ability evaluation Protein dissolution concentration” value in the data set with Zein powder came out at 430 µg/mL. The “Cytotoxicity evaluation IC50” value in the data set on L929 mouse fibroblasts is recorded as 90 ppm.
